Columns and labels:
Experiment in all cases: relative viability (nuclei count vs DMSO), 5 days (fraction); higher = more cells survive
[1] = compound: C1=CC=C(C(=C1)C2=CC=C(C=C2)C3=CSC4=C3C(=C(C(=O)N4)C#N)O)O + C[C@@H](Oc1cc(-c2cnn(C3CCNCC3)c2)cnc1N)c1c(Cl)ccc(F)c1Cl [Crizotinib] (partner 1 µM)
Outline: (§1)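 Lung cancer cell lines were seeded in 1536-well plates and dosed by pin tool the next day, with either a single drug or a fixed anchor-drug dose combined with five library-drug doses (not always all listed) spaced in √10 steps. Five days later, one step fixed the cells and stained their nuclei (final 0.05% Triton X-100, 1% formaldehyde, 1 ug/ml Hoechst), and nuclei were counted on 4× images. Relative viability is the nuclei count in treated wells divided by the count in vehicle wells, and each value is the median of duplicate plates.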

TGX 221 + Palbociclib = compound: CC1=CN2C(=O)C=C(N=C2C(=C1)C(C)NC3=CC=CC=C3)N4CCOCC4 [TGX 221] + CC(=O)c1c(C)c2cnc(Nc3ccc(N4CCNCC4)cn3)nc2n(C2CCCC2)c1=O [Palbociclib] (partner 0.5 µM)
Outline: as §1

[2] = compound: O=C(CCCCCCNC(=O)c1cnc(N(c2ccccc2)c2ccccc2)nc1)NO [Ricolinostat] + O=C(CCCCCCC(=O)Nc1ccccc1)NO [Vorinostat] (partner 1 µM)
Outline: as §1

Cell Line	relative viability ([1]; first compound 0.08 µM)	relative viability ([1]; first compound 0.253 µM)	relative viability ([1]; first compound 0.8 µM)	relative viability ([1]; first compound 2.53 µM)	relative viability ([1]; first compound 8 µM)	relative viability (TGX 221 + Palbociclib; first compound 0.08 µM)	relative viability (TGX 221 + Palbociclib; first compound 0.253 µM)	relative viability (TGX 221 + Palbociclib; first compound 0.8 µM)	relative viability (TGX 221 + Palbociclib; first compound 2.53 µM)	relative viability (TGX 221 + Palbociclib; first compound 8 µM)	relative viability ([2]; first compound 0.08 µM)	relative viability ([2]; first compound 0.253 µM)	relative viability ([2]; first compound 0.8 µM)	relative viability ([2]; first compound 2.53 µM)
NCI-H1651	0.878	0.823	0.851	0.878	0.826	0.525	0.465	0.505	0.489	0.44	0.459	0.594	0.411	0.395
NCI-H1666	0.914	1.15	0.731	0.769	1.03	0.679	0.599	0.638	0.667	0.674	0.933	1.01	1.01	0.847
NCI-H1734	0.627	0.703	0.689	0.634	0.444	0.235	0.332	0.351	0.317	0.289	0.725	0.891	0.702	0.67
NCI-H1755	0.74	0.916	0.738	0.97	0.827	0.36	0.422	0.385	0.421	0.436	0.665	0.715	0.673	0.484
NCI-H1915	0.806	1.05	0.828	0.937	0.65	0.491	0.497	0.536	0.498	0.473	0.468	0.51	0.467	0.326
NCI-H1944	1.08	1.19	1.07	1.23	1.04	–	0.327	0.332	0.277	0.245	0.493	0.539	0.488	0.422
NCI-H1975	0.852	1.03	1.01	1.05	0.721	0.532	0.558	0.629	0.452	0.526	0.655	0.671	0.566	0.609
NCI-H1993	0.794	0.922	0.816	0.776	0.741	0.54	0.607	0.54	0.519	0.459	0.551	0.825	0.693	–
NCI-H2009	0.916	1.03	1.01	1.04	0.955	0.216	0.191	0.118	0.175	0.166	0.614	0.68	0.711	0.53
NCI-H2023	0.546	0.759	0.607	0.701	0.538	0.328	0.337	0.269	0.342	0.212	0.511	0.544	0.47	0.369
NCI-H2085	0.704	0.983	0.859	0.952	0.867	0.506	0.481	0.43	0.35	0.291	–	0.751	0.731	0.631
NCI-H2087	0.845	1.04	0.914	1.02	0.825	0.214	0.234	0.237	0.21	0.248	0.398	0.42	0.728	0.193
NCI-H2126	0.921	1.11	1	1.09	0.912	0.348	0.341	0.342	0.354	0.308	0.456	0.796	0.684	0.485

Source: the supplement of paper PMC10307832
